Laboratory results reported in patent US9708318B2, “Bicyclic heterocycles as FGFR4 inhibitors” (Incyte Corporation, priority 2015, dated 2017).
Where two headings read alike, the source gives them in different places.

How the values were obtained:
FGFR3 enzyme = FGFR3 enzyme (Homo sapiens (Human), UniProt P22607); experiment: FGFR Enzymatic Assay (FRET peptide phosphorylation), FGFR3; assay type: biochemical; settings: for IC50: read-out: FGFR3 IC50; for FGFR1/FGFR3 IC50 ratio / FGFR4/FGFR3 IC50 ratio: FGFR3 selectivity
Method: (§1) The inhibitor potency of the exemplified compounds was measured in an enzyme assay that measures peptide phosphorylation using FRET measurements to detect product formation. Inhibitors were serially diluted in DMSO and a volume of 0.5 μL was transferred to the wells of a 384-well plate.
(§2) GraphPad prism3 was used to analyze the data.

FGFR4 = FGFR4 (Homo sapiens (Human), UniProt P22455); experiment: FGFR Enzymatic Assay (FRET peptide phosphorylation), FGFR4; assay type: biochemical; settings: for FGFR1/FGFR4 IC50 ratio / FGFR2/FGFR4 IC50 ratio / FGFR3/FGFR4 IC50 ratio: FGFR4 selectivity
Method: as §1
(§3) The enzymes were purchased from Millipore or Invitrogen.
as §2

FGFR1 = FGFR1 (Homo sapiens (Human), UniProt P11362); experiment: FGFR Enzymatic Assay (FRET peptide phosphorylation), FGFR1
FGFR2 = FGFR2 (Homo sapiens (Human), UniProt P21802); experiment: FGFR Enzymatic Assay (FRET peptide phosphorylation), FGFR2; assay type: biochemical
Method: as §1, §3, §2

[1] = read-out: FGFR1 IC50, pre-incubated for 4 hours
[2] = FGFR1 IC50 (nM), pre-incubated for 4 hours
[3] = pre-incubated for 5 to 10 minutes
[4] = read-out: FGFR1 IC50, pre-incubated for 5 to 10 minutes
[5] = FGFR1 IC50 (nM), pre-incubated for 5 to 10 minutes

Sequence of FGFR1 (P11362 22-822): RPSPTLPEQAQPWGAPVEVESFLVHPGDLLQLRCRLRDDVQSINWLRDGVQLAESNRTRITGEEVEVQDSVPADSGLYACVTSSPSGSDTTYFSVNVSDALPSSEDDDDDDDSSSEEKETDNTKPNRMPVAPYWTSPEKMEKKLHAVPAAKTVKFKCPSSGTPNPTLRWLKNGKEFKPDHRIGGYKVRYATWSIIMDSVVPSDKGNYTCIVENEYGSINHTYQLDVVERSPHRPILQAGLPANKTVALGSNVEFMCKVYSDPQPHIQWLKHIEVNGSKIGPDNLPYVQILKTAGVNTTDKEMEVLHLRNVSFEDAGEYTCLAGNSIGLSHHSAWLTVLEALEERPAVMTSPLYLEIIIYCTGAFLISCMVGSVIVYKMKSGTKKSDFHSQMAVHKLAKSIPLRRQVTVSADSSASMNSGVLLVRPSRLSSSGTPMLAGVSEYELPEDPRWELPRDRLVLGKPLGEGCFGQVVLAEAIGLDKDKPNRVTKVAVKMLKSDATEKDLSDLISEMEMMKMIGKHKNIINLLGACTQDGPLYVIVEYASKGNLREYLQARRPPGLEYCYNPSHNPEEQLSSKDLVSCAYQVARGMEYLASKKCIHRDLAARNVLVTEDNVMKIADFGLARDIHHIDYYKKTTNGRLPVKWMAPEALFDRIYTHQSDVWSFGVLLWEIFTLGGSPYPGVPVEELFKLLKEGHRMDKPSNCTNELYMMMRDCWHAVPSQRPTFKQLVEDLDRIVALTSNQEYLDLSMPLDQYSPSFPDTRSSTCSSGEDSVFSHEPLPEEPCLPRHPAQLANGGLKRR
Sequence of FGFR2 (P21802 22-821): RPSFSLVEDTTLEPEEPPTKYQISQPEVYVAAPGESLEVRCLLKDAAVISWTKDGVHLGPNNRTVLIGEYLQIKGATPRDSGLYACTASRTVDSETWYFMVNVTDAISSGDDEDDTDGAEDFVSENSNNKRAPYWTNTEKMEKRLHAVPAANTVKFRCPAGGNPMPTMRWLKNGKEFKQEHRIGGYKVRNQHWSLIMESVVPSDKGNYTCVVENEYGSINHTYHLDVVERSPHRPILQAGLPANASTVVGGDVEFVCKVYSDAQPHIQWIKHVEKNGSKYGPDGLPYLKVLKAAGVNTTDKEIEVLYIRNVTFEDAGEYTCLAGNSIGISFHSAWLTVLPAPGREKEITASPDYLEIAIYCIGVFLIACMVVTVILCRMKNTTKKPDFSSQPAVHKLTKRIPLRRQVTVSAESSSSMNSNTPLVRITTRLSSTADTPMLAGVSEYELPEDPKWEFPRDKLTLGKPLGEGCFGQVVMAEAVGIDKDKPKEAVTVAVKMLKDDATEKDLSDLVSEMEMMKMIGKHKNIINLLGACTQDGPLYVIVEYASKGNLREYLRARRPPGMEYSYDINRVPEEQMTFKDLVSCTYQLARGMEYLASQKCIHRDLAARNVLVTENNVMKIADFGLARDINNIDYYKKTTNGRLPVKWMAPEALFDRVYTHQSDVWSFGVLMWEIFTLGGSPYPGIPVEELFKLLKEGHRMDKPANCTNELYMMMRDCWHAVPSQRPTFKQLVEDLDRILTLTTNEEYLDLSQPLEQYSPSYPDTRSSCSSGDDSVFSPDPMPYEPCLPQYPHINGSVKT
Sequence of FGFR4 (P22455 22-802): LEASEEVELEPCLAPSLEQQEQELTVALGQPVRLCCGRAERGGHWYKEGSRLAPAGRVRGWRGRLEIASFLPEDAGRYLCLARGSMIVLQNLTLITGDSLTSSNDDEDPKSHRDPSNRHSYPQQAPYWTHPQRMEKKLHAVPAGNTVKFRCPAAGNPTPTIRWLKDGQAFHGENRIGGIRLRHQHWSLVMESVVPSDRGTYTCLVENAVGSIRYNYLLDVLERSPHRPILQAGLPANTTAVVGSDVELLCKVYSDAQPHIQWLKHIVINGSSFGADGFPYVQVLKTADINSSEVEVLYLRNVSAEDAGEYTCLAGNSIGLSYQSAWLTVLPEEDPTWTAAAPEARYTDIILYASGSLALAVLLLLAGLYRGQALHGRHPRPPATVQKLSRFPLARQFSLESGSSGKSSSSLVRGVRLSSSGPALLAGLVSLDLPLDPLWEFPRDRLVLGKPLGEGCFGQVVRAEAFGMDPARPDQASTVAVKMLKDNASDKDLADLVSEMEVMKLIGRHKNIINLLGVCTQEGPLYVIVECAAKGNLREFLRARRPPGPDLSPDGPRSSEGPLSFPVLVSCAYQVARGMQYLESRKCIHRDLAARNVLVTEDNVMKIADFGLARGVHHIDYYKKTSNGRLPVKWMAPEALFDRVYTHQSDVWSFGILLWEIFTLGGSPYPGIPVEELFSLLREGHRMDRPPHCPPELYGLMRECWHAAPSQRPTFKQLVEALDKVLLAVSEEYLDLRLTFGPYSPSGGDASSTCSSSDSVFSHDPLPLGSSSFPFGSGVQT
Sequence of FGFR3 enzyme (P22607 23-806): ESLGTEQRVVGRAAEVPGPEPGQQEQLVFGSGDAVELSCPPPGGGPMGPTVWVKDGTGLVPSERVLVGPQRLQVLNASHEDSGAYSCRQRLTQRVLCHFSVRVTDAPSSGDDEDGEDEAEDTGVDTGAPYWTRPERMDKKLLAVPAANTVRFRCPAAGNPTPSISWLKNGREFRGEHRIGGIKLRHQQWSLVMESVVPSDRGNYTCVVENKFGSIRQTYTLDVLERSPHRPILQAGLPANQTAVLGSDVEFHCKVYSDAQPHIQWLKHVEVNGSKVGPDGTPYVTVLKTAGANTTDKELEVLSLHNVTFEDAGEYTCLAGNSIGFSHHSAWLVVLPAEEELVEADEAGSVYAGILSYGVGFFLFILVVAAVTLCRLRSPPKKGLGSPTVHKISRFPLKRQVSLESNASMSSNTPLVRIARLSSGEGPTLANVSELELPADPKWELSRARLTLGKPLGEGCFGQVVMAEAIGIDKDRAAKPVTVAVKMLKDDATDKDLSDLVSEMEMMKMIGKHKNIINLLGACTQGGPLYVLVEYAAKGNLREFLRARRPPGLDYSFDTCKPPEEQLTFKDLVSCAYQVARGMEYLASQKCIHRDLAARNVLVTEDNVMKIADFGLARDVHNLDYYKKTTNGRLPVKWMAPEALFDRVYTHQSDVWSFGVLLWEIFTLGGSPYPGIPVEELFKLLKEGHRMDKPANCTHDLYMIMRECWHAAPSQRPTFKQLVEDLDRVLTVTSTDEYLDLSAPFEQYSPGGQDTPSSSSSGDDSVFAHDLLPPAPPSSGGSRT

Row | IC50 (FGFR3 enzyme; pre-incubated for 4 hours) [nM] | IC50 (FGFR4; pre-incubated for 4 hours) [nM] | IC50 (FGFR1; [1]) [nM] | IC50 (FGFR2; pre-incubated for 4 hours) [nM] | FGFR1/FGFR3 IC50 ratio (FGFR3 enzyme; pre-incubated for 4 hours) | FGFR4/FGFR3 IC50 ratio (FGFR3 enzyme; pre-incubated for 4 hours) | IC50 (FGFR1; [2]) [nM] | IC50 (FGFR3 enzyme; [3]) [nM] | SMILES | FGFR1/FGFR4 IC50 ratio (FGFR4; pre-incubated for 4 hours) | FGFR2/FGFR4 IC50 ratio (FGFR4; pre-incubated for 4 hours) | FGFR3/FGFR4 IC50 ratio (FGFR4; pre-incubated for 4 hours) | IC50 (FGFR4; [3]) [nM] | IC50 (FGFR1; [4]) [nM] | IC50 (FGFR2; [3]) [nM] | IC50 (FGFR1; [5]) [nM] | FGFR1/FGFR4 IC50 ratio (FGFR4; [3]) | FGFR2/FGFR4 IC50 ratio (FGFR4; [3]) | FGFR3/FGFR4 IC50 ratio (FGFR4; [3]) | IC50 (FGFR3 enzyme) [nM]
1 | > 200 | 10 to 30 | > 200 | > 200 |  |  |  |  | COc1cc(OC)c(F)c(N2Cc3cnc(-c4nn(C)cc4C#N)cc3C3(CC3)C2=O)c1F [Example 172, 3-(2′-(2,6-difluoro-3,5-dimethoxyphenyl)-3′-oxo-2′,3′-dihydro-1′H-spiro[cyclopropane-1,4′-[2,7]naphthyridine]-6′-yl)-1-methyl-1H-pyrazole-4-carbonitrile] | >50 | >25 | >10 |  |  |  |  |  |  |  | 
2 | < 10 | 10 to 30 |  | < 10 | >5 |  | 10 to 30 |  | COc1cc(OC)c(F)c(N2Cc3cnc(-c4cn(C)nc4C)cc3C3(CC3)C2=O)c1F [Example 21, 2′-(2,6-difluoro-3,5-dimethoxyphenyl)-6′-(1,3-dimethyl-1H-pyrazol-4-yl)-1′,2′-dihydro-3′H-spiro[cyclopropane-1,4′-[2,7]naphthyridin]-3′-one] |  |  |  |  |  |  |  |  |  |  | 
3 | 10 to 30 | 30 to 200 |  | 10 to 30 | >3 | >5 | 30 to 200 |  | COc1cc(OC)c(F)c(N2Cc3cnc(-c4cn(C)nc4C)cc3N(c3ncccn3)C2=O)c1F [Example 105, 3-(2,6-difluoro-3,5-dimethoxyphenyl)-7-(1,3-dimethyl-1H-pyrazol-4-yl)-1-(pyrimidin-2-yl)-3,4-dihydropyrido[4,3-d]pyrimidin-2(1H)-one] |  |  |  |  |  |  |  |  |  |  | 
4 | < 10 | 30 to 200 |  | < 10 | >5 | >10 | 10 to 30 |  | COc1cc(OC)c(F)c(N2Cc3cnc(-c4cn(C)nc4C)cc3N(Cc3csc(C)n3)C2=O)c1F [Example 95, 3-(2,6-difluoro-3,5-dimethoxyphenyl)-7-(1,3-dimethyl-1H-pyrazol-4-yl)-1-((2-methylthiazol-4-yl)methyl)-3,4-dihydropyrido[4,3-d]pyrimidin-2(1H)-one] |  |  |  |  |  |  |  |  |  |  | 
5 | < 10 | < 10 | < 10 | < 10 | >5 | >5 |  |  | COc1cc(OC)c(F)c(N2Cc3cnc(-c4cnn(CCCN5CCOCC5)c4)cc3C3(CC3)C2=O)c1F [Example 151, 2′-(2,6-difluoro-3,5-dimethoxyphenyl)-6′-(1-(3-morpholinopropyl)-1H-pyrazol-4-yl)-1′H-spiro[cyclopropane-1,4′-[2,7]naphthyridin]-3′(2′H)-one] |  |  |  |  |  |  |  |  |  |  | 
6 | < 10 | 30 to 200 |  | 10 to 30 | >10 | >5 | 30 to 200 |  | COc1cc(OC)c(F)c(N2Cc3cnc(-c4cn(C)nc4C)cc3N(c3ccc4ccncc4c3)C2=O)c1F [Example 63, 3-(2,6-difluoro-3,5-dimethoxyphenyl)-7-(1,3-dimethyl-1H-pyrazol-4-yl)-1-(isoquinolin-7-yl)-3,4-dihydropyrido[4,3-d]pyrimidin-2(1H)-one] |  |  |  |  |  |  |  |  |  |  | 
7 | 10 to 30 | 30 to 200 |  | 30 to 200 | >3 | >5 | 30 to 200 |  | CCc1cnc(N2C(=O)N(c3c(F)c(OC)cc(OC)c3F)Cc3cnc(-c4cn(C)nc4C)cc32)cn1 [Example 106, 3-(2,6-difluoro-3,5-dimethoxyphenyl)-7-(1,3-dimethyl-1H-pyrazol-4-yl)-1-(5-ethylpyrazin-2-yl)-3,4-dihydropyrido[4,3-d]pyrimidin-2(1H)-one] |  |  |  |  |  |  |  |  |  |  | 
8 | < 10 | 10 to 30 |  | < 10 | >5 |  | 10 to 30 |  | CNC(=O)c1ccc(-c2cc3c(cn2)CN(c2c(F)c(OC)cc(OC)c2F)C(=O)C32CC2)cn1 [Example 18, 5-(2′-(2,6-difluoro-3,5-dimethoxyphenyl)-3′-oxo-2′,3′-dihydro-1′H-spiro[cyclopropane-1,4′-[2,7]naphthyridine]-6′-yl)-N-methylpicolinamide] |  |  |  |  |  |  |  |  |  |  | 
9 |  |  |  |  |  |  |  | < 10 | COc1cc(OC)c(F)c(N2Cc3cnc(-c4cn(C)nc4C)cc3N(Cc3cnn(CC(F)F)c3)C2=O)c1F [Example 128, 3-(2,6-difluoro-3,5-dimethoxyphenyl)-1-((1-(2,2-difluoroethyl)-1H-pyrazol-4-yl)methyl)-7-(1,3-dimethyl-1H-pyrazol-4-yl)-3,4-dihydropyrido[4,3-d]pyrimidin-2(1H)-one] |  |  |  | 10 to 30 | < 10 | < 10 |  |  |  |  | 
10 |  |  |  |  |  |  |  | 10 to 30 | COc1cc(OC)c(F)c(N2Cc3cnc(-c4ccc(C5(C#N)CCC5)nc4)cc3N(c3ccccn3)C2=O)c1F [Example 137, 1-(5-(3-(2,6-difluoro-3,5-dimethoxyphenyl)-2-oxo-1-(pyridin-2-yl)-1,2,3,4-tetrahydropyrido[4,3-d]pyrimidin-7-yl)pyridin-2-yl)cyclobutanecarbonitrile] |  |  |  | 30 to 200 |  | 10 to 30 | 30 to 200 |  |  |  | 
11 | < 10 | 10 to 30 |  | < 10 | >5 | >5 | 10 to 30 |  | CCN1C(=O)N(c2c(F)c(OC)cc(OC)c2F)Cc2cnc(-c3ccc(CN4CC[C@H](C#N)C4)cc3)cc21 [Example 25, (S)-1-(4-(3-(2,6-difluoro-3,5-dimethoxyphenyl)-1-ethyl-2-oxo-1,2,3,4-tetrahydropyrido[4,3-d]pyrimidin-7-yl)benzyl)pyrrolidine-3-carbonitrile] |  |  |  |  |  |  |  |  |  |  | 
12 | 10 to 30 | 30 to 200 |  | 30 to 200 | >5 | >1 | 30 to 200 |  | COc1cc(OC)c(F)c(N2Cc3cnc(-c4cn(Cc5cccnc5)nc4C)cc3C3(CC3)C2=O)c1F [Example 155, 2′-(2,6-difluoro-3,5-dimethoxyphenyl)-6′-(3-methyl-1-(pyridin-3-ylmethyl)-1H-pyrazol-4-yl)-1′H-spiro[cyclopropane-1,4′-[2,7]naphthyridin]-3′(2′H)-one] |  |  |  |  |  |  |  |  |  |  | 

Row | SMILES | IC50 (FGFR3 enzyme; pre-incubated for 4 hours) [nM] | IC50 (FGFR4; pre-incubated for 4 hours) [nM] | IC50 (FGFR1; [1]) [nM] | IC50 (FGFR2; pre-incubated for 4 hours) [nM] | FGFR1/FGFR3 IC50 ratio (FGFR3 enzyme; pre-incubated for 4 hours) | FGFR4/FGFR3 IC50 ratio (FGFR3 enzyme; pre-incubated for 4 hours) | IC50 (FGFR1; [2]) [nM] | IC50 (FGFR3 enzyme; [3]) [nM] | FGFR1/FGFR4 IC50 ratio (FGFR4; pre-incubated for 4 hours) | FGFR2/FGFR4 IC50 ratio (FGFR4; pre-incubated for 4 hours) | FGFR3/FGFR4 IC50 ratio (FGFR4; pre-incubated for 4 hours) | IC50 (FGFR4; [3]) [nM] | IC50 (FGFR1; [4]) [nM] | IC50 (FGFR2; [3]) [nM] | IC50 (FGFR1; [5]) [nM] | FGFR1/FGFR4 IC50 ratio (FGFR4; [3]) | FGFR2/FGFR4 IC50 ratio (FGFR4; [3]) | FGFR3/FGFR4 IC50 ratio (FGFR4; [3]) | IC50 (FGFR3 enzyme) [nM]
13 | COc1cc(OC)c(F)c(N2Cc3cnc(-c4cn(C)nc4C)cc3N(c3ccc(C#N)cc3)C2=O)c1F [Example 44, 4-(3-(2,6-difluoro-3,5-dimethoxyphenyl)-7-(1,3-dimethyl-1H-pyrazol-4-yl)-2-oxo-3,4-dihydropyrido[4,3-d]pyrimidin-1(2H)-yl)benzonitrile] | < 10 | 30 to 200 |  | 10 to 30 | >10 | >10 | 30 to 200 |  |  |  |  |  |  |  |  |  |  |  | 
14 | COc1cc(OC)c(F)c(N2Cc3cnc(-c4ccc(C5(C#N)CCC5)nc4)cc3N(c3cnn(C)c3)C2=O)c1F [Example 188, 1-{5-[3-(2,6-difluoro-3,5-dimethoxyphenyl)-1-(1-methyl-1H-pyrazol-4-yl)-2-oxo-1,2,3,4-tetrahydropyrido[4,3-d]pyrimidin-7-yl]pyridin-2-yl}cyclobutanecarbonitrile] | 10 to 30 | 30 to 200 |  | 10 to 30 | >5 | >5 | 30 to 200 |  |  |  |  |  |  |  |  |  |  |  | 
15 | COc1cc(OC)c(F)c(N2Cc3cnc(-c4cncc(F)c4)cc3C3(CC3)C2=O)c1F [Example 5, 2′-(2,6-difluoro-3,5-dimethoxyphenyl)-6′-(5-fluoropyridin-3-yl)-1′H-spiro[cyclopropane-1,4′-[2,7]naphthyridin]-3′(2′H)-one] | 10 to 30 | < 10 |  | 10 to 30 | >3 |  | 30 to 200 | 10 to 30 | >10 | >5 | >1 | < 10 |  | 10 to 30 | 30 to 200 | >10 | >5 | >4 | 
16 | COc1cc(OC)c(F)c(N2Cc3cnc(-c4cc(N)ccc4C)cc3C3(CC3)C2=O)c1F [Example 1, 6′-(5-amino-2-methylphenyl)-2′-(2,6-difluoro-3,5-dimethoxyphenyl)-1′H-spiro[cyclopropane-1,4′-[2,7]naphthyridin]-3′(2′H)-one] |  | 30 to 200 | > 200 | > 200 |  |  |  |  | >25 | >25 | >25 | 30 to 200 | > 200 | > 200 |  | >25 | >25 | >50 | > 200
